Assay results taken from patent US6331548A, “1-cycloalkyl-1,8-naphthyridin-4-one derivative as type IV phosphodiesterase inhibitor” (Suntory Limited, priority 1998, dated 2001).
Counter-ions that a name gives are not always drawn.

Columns and labels:
[1] = target: type IV phosphodiesterase; test: Type IV phosphodiesterase inhibiting activity; type: biochemical, human; conditions: U937 type IV phosphodiesterase fraction, 0.28 μM cAMP, pH 7.5, 30° C., 30 minutes; read-out: PDEIV-IC50
Description: The following assay was used to evaluate the ability of the compound of the present invention to suppress type IV phosphodiesterase, according to Biochemical. Pharmacol. 48 (6), 1219-1223 (1994).
1) Type IV phosphodiesterase activity fractions were prepared as follows. Namely, human histiocytic lymphoma cell line U937 was cultured in an RPMI1640 medium containing 10% fetal calf serum to obtain 10^9 cells of U937. The cells were recovered by centrifugation and suspended in 40 ml of buffer A (20 mM bis-tris, 5 mM 2-mercaptoethanol, 2 mM benzamidine, 2 mM EDTA, 0.1 mM 4-(2-aminoethyl)benzensulfonyl hydrochloride, 50 mM sodium acetate, pH=6.5). The cells were broken by a sonication and centrifuged (4° C., 10,000 G, 10 minutes) to obtain a supernatant. This was filtered by a 0.45 μm filter to obtain the soluble fraction.
2) The soluble fraction obtained was applied into a 1×10 cm DEAE Sepharose column equalibrated with the buffer A. 120 ml of the buffer A containing a linear gradient solution of 0.05 to 1M sodium acetate was used to separate the phosphodiesterase and recover 24 5-ml fractions. Each of the fractions was measured for the cAMP phosphodiesterase activity.
3) The test compound was reacted at a desired concentration in a reaction mixture containing 20 mM tris-HCl (pH 7.5), 1 mM MgCl2, 100 μM EDTA, 330 μg/ml calf serum albumin, 10 μg/ml 5'-nucleotidase, 0.4 μCi ^3 H-cAMP (0.28 μM cAMP) and the type IV phosphodiesterase stored solution at 30° C. for 30 minutes. QAE-Sephadex suspended in 10 mM of hepes-Na (pH -7.0) was added to the reaction mixture which was then allowed to stand for 5 minutes, then the supernatant was obtained, QAE-Sephadex was further added, to the supernatant, and was allowed to stand for 5 minutes, then the supernatant was obtained and measured for radioactivity.

[2] = system: TNF-α production by LPS stimulated macrophages; test: TNF-α production inhibitory activity by LPS stimulated macrophages; type: cell-based; conditions: Macrophage, BALB/c mouse peritoneal macrophages, cultured for 8 hours, ELISA
Description: The following assay was used to evaluate the ability of the compound of the present invention to suppress TNF-α production by LPS stimulated macrophages according to Immunopharmacol. 29, 121-127 (1995).
1) 6 to 10 week old female BALB/c mice were used, 2 ml portions of thioglycolate were intraperitoneally administered, and the abdominal cavities were washed by 10 ml of PBS after 4 days, whereby 1 to 2×10^7 peritoneal cells were obtained per mouse. These were suspended in a hemocyte solution (0.75% ammonium chloride, 17 mM tris-hydrochlorate buffer, pH7.2), centrifuged, then resuspended in an RPMI1640 medium including 10% fetal calf serum and seeded in a 96-well cell culture plate at a density of 1×10^5 cells/50 μl/well. Since these cells adhered strongly to the tissue culture plate and were positive in nonspecific esterase staining, they were used for the test as mouse peritoneal macrophages. Mouse peritoneal macrophages were precultured overnight at 37° C. in […] for the experiment.
2) E. Coli (serum type 055:B5) derived LPS was dissolved in PBS in a concentration of 1 mg/ml, then sterilized by filtration. The test compound was dissolved in DMSO to make a 1000-fold concentration solution of the final concentration of use. 10 μl of the above LPS stock solution (final concentration 10 μg/ml) and 1 μl of the tested substance stock solution were added and mixed in 0.5 ml of RPMI1640 medium containing 10% fetal calf serum. This was added to the above cells at 50 μl/well and cultured for 8 hours. The cultured supernatant was recovered from each well and the TNF-α concentration was measured by the ELISA method (Cytoscreen® Immunoassay Kit Mouse TNF-α, BioSourse International).
The comparative example was the compound described in WO-A-97-04775, Example 1, mentioned above.

## O=C(Nc1c(Cl)cncc1Cl)c1cn(C2CC[S+]([O-])CC2)c2ncccc2c1=O (centres unmarked) [Example 102 (Sulfoxide), N-(3,5-dichloropyridin-4-yl)-1-(1-oxotetrahydrothiopyran-4-yl)-1,4-dihydro[1,8]naphthylidin-4-one-3-carboxamide]
[1]
  IC50: 5.1 nM
[2]
  IC50: 70 nM

## O=CN1CCC(n2cc(C(=O)Nc3c(Cl)cncc3Cl)c(=O)c3cccnc32)CC1 [Example 48, N-(3,5-dichloropyridin-4-yl)-1-(1-formylpiperidin-4-yl)-1,4-dihydro[1,8]naphthylidin-4-one-3-carboxamide]
[1]
  IC50: 4.8 nM
[2]
  IC50: 1500 nM

## O=C(Nc1c(Cl)cncc1Cl)c1cn(C2CCSCC2)c2ncccc2c1=O [Example 101, N-(3,5-dichloropyridin-4-yl)-1-(4-tetrahydrothiopyranyl)-1,4-dihydro[1,8]naphthylidin-4-one-3-carboxamide]
[1]
  IC50: 0.4 nM
[2]
  IC50: 3 nM

## O=C(Nc1c(Cl)cncc1Cl)c1cn([C@H]2C[C@H]3COC(=O)N3C2)c2ncccc2c1=O [Example 86, N-(3,5-dichloropyridine-4-yl)-1-[(5S,7S)-1-aza-3-oxabicyclo[3,3,0]octan-2-one-7-yl]-1,4-dihydro[1,8]naphthylidin-4-one-3-carboxamide]
[1]
  IC50: 140 nM
[2]
  IC50: 3000 nM

## O=C(Nc1c(Cl)cncc1Cl)c1cn([C@H]2CCOC2)c2ncccc2c1=O [Example 44, N-(3,5-dichloropyridine-4-yl)-1-[(S)-tetrahydro-3-furanyl]-1,4-dihydro[1,8]naphthylidin-4-one-3-carboxamide]
[1]
  IC50: 2.7 nM
[2]
  IC50: 10 nM

## CN1CCN(n2cc(C(=O)Nc3c(Cl)cncc3Cl)c(=O)c3cccnc32)CC1 [Example 55, N-(3,5-dichloropyridin-4-yl)-1-(4-methylpiperazine-1-yl)-1,4-dihydro[1,8]naphthylidin-4-one-3-carboxamide]
[1]
  IC50: 6.7 nM
[2]
  IC50: 10 nM

## O=C(Nc1c(Cl)cncc1Cl)c1cn(C2CCN(Cc3ccccc3)CC2)c2ncccc2c1=O [Example 46, N-(3,5-dichloropyridin-4-yl)-1-(benzylpiperidin-4-yl)-1,4-dihydro[1,8]naphthylidin-4-one-3-carboxamide]
[1]
  IC50: 13 nM
[2]
  IC50: 500 nM

## O=C(Nc1ccncc1)c1cn(C2CCCC2)c2ncccc2c1=O [Example 149, N-(4-pyridyl)-1-cyclopentyl-1,4-dihydro[1,8]naphthylidin-4-one-3-carboxamide]
[1]
  IC50: 41 nM
[2]
  IC50: 78 nM

## CN(C)C(=O)[C@@H]1C[C@H](n2cc(C(=O)Nc3c(Cl)cncc3Cl)c(=O)c3cccnc32)CN1 [Example 93, N-(3,5-dichloropyridin-4-yl)-1-[(3S,5S)-(5-dimethylaminocarbonyl)pyrrolidin-3-yl]-1,4-dihydro[1,8]naphthylidin-4-one-3-carboxamide]
[1]
  IC50: 69 nM
[2]
  IC50: 2000 nM

## O=C(Nc1c(Cl)cncc1Cl)c1cn(C2CCS(=O)(=O)CC2)c2ncccc2c1=O [Example 102 (Sulfon), N-(3,5-dichloropyridin-4-yl)-1-(1,1-dioxotetrahydrothiopyran-4-yl)-1,4-dihydro[1,8]naphthylidin-4-one-3-carboxamide]
[1]
  IC50: 16 nM
[2]
  IC50: 200 nM

## O=C(Nc1c(Cl)cncc1Cl)c1cn([C@H]2CC[C@@H](O)CC2)c2ncccc2c1=O [Example 119, N-(3,5-dichloropyridin-4-yl)-1-(cis-4-hydroxycyclohexyl)-1,4-dihydro[1,8]naphthylidin-4-one-3-carboxamide]
[1]
  IC50: 1 nM
[2]
  IC50: 0.04 nM

## CC(=O)N1CCC(n2cc(C(=O)Nc3c(Cl)cncc3Cl)c(=O)c3cccnc32)CC1 [Example 28, N-(3,5-dichloropyridin-4-yl)-1-(1-acetylpiperidin-4-yl)-1,4-dihydro[1,8]naphthylidin-4-one-3-carboxamide]
[1]
  IC50: 7.8 nM
[2]
  IC50: 100 nM

## NC(=O)N1CC[C@H](n2cc(C(=O)Nc3c(Cl)cncc3Cl)c(=O)c3cccnc32)C1 [Example 20, (S)-N-(3,5-dichloropyridin-4-yl)-1-(1-aminocarbonylpyrrolidin-3-yl)-1,4-dihydro[1,8]naphthylidin-4-one-3-carboxamide]
[1]
  IC50: 12 nM
[2]
  IC50: 3000 nM

## CNC(=S)N1CC[C@H](n2cc(C(=O)Nc3c(Cl)cncc3Cl)c(=O)c3cccnc32)C1 [Example 19, (S)-N-(3,5-dichloropyridin-4-yl)-1-(1-methylaminothiocarbonylpyrrolidin-3-yl)-1,4-dihydro[1,8]naphthylidin-4-one-3-carboxamide]
[1]
  IC50: 6.3 nM
[2]
  IC50: 7 nM

## O=C(Nc1c(Cl)cncc1Cl)c1cn(C2CCNCC2)c2ncccc2c1=O [Example 47, N-(3,5-dichloropyridin-4-yl)-1-(4-piperidyl)-1,4-dihydro[1,8]naphthylidin-4-one-3-carboxamide hydrochloride]
[1]
  IC50: 40 nM
[2]
  IC50: 800 nM

## COc1ccc(C2CNC(=O)C2)cc1OC1CCCC1 (centres unmarked) [Rolipram, reference compound]
[2]
  IC50: 100 nM

## COC(=O)N1CCC(n2cc(C(=O)Nc3c(Cl)cccc3Cl)c(=O)c3cccnc32)C1 (racemic) [Example 4, (±)-N-(2,6-dichlorophenyl)-1-(1-methoxycarbonylpyrrolidin-3-yl)-1,4-dihydro[1,8]naphthyridin-4-one-3-carboxamide]
[1]
  IC50: 60 nM

## CC1(O)CCC(n2cc(C(=O)Nc3ccncc3)c(=O)c3cccnc32)CC1 (centres unmarked) [Example 194, N-(4-pyridinyl)-1-(4-hydroxy-4-methylcyclohexyl)-1,4-dihydro[1,8]naphthylidin-4-one-3-carboxamide]
[1]
  IC50: 960 nM

## O=C(Nc1c(Cl)cncc1Cl)c1cn(C2CCC2)c2ncccc2c1=O [Example 145, N-(3,5-dichloropyridin-4-yl)-1-cyclobutyl-1,4-dihydro[1,8]naphthylidin-4-one-3-carboxamide]
[1]
  IC50: 8.3 nM

## CC(=O)O[C@H]1CC[C@@H](n2cc(C(=O)Nc3c(Cl)cncc3Cl)c(=O)c3cccnc32)CC1 [Example 118]
[1]
  IC50: 1.3 nM

## CCNC(=O)N[C@H]1CC[C@H](n2cc(C(=O)Nc3c(Cl)cncc3Cl)c(=O)c3cccnc32)CC1 [Example 71, N-(3,5-dichloropyridin-4-yl)-1-[trans-4-(ethylaminocarbonylamino)cyclohexyl]-1,4-dihydro[1,8]naphthylidin-4-one-3-carboxamide]
[1]
  IC50: 0.5 nM

## O=C(O[C@H]1CC[C@H](n2cc(C(=O)Nc3c(Cl)cncc3Cl)c(=O)c3cccnc32)CC1)c1ccc(CN2CCOCC2)cc1 [Example 135, trans-4-[3-{[(3,5-dichloro-4-pyridinyl)amino]carbonyl}-4-oxo[1,8]naphthylidin-1(4H)-yl]cyclohexyl 4-(morpholinomethyl)benzoate hydrochloride]
[1]
  IC50: 4.5 nM

## O=C(Nc1cccnc1)c1cn([C@H]2CC[C@H](O)CC2)c2ncccc2c1=O [Example 172, N-(3-pyridyl)-1-(trans-4-hydroxycyclohexyl)-1,4-dihydro[1,8]naphthylidin-4-one-3-carboxamide]
[1]
  IC50: 360 nM

## CC(=O)N[C@H]1CC[C@H](n2cc(C(=O)Nc3c(Cl)cncc3Cl)c(=O)c3cccnc32)CC1 [Example 70, N-(3,5-dichloropyridin-4-yl)-1-[trans-4-(acetylamino)cyclohexyl]-1,4-dihydro[1,8]naphthylidin-4-one-3-carboxamide]
[1]
  IC50: 3.9 nM

## O=C(NC1CCCC1)c1cn([C@H]2CC[C@H](O)CC2)c2ncccc2c1=O [Example 168, N-cyclopentyl-1-(trans-4-hydroxycyclohexyl)-1,4-dihydro[1,8]naphthylidin-4-one-3-carboxamide]
[1]
  IC50: 1500 nM

## O=C(NC1CCC1)c1cn([C@H]2CC[C@H](O)CC2)c2ncccc2c1=O [Example 164]
[1]
  IC50: 400 nM
